In one test the target is T1, human SGLT2 (Homo sapiens, UniProt P31639).
T1 construct: expressed in transfected cells; host or cells: CHO-k1
T1 sequence (P31639 1-672): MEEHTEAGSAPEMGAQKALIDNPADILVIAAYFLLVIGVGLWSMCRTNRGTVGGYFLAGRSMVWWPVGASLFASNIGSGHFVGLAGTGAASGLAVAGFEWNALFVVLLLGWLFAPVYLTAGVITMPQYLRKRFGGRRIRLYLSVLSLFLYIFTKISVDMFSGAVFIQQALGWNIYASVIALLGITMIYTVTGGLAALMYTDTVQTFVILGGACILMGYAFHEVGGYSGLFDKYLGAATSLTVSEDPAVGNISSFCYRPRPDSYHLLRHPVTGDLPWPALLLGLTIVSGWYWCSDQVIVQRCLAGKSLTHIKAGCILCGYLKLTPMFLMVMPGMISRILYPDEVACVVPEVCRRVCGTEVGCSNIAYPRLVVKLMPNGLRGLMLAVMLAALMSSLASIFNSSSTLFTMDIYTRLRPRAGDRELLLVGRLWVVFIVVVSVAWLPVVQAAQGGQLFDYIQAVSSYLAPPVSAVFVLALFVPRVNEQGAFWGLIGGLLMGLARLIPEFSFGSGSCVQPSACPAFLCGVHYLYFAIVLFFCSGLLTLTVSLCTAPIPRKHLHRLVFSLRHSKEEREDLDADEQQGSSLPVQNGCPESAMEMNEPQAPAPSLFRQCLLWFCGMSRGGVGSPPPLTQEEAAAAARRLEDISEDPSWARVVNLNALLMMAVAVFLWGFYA
The experiment in a line: Inhibition test of sodium-dependent sugar uptake in CHO-k1 cells stably expressing human SGLT2. It counts as cell-based. As to conditions: CHO-k1 cells expressing human SGLT2; [14C]methyl α-D-glucopyranoside uptake, 37° C., an hour. An outline of the steps:
(§1)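 CHO-k1 cells stably expressing the human transporter were preincubated 20 min in Na-free choline buffer, then given compound in NaCl uptake buffer with 1 mM [14C]methyl α-D-glucopyranoside (pH 7.4) at 37 °C for 30 min (SGLT1) or 1 h (SGLT2). Radioactivity uptake was compared with compound-free control; IC50 came from 6 concentrations.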

For another test, the target named is T2, human SGLT1 (Homo sapiens, UniProt P13866).
T2 construct: expressed in transfected cells; host or cells: CHO-k1
T2 sequence (P13866 1-664): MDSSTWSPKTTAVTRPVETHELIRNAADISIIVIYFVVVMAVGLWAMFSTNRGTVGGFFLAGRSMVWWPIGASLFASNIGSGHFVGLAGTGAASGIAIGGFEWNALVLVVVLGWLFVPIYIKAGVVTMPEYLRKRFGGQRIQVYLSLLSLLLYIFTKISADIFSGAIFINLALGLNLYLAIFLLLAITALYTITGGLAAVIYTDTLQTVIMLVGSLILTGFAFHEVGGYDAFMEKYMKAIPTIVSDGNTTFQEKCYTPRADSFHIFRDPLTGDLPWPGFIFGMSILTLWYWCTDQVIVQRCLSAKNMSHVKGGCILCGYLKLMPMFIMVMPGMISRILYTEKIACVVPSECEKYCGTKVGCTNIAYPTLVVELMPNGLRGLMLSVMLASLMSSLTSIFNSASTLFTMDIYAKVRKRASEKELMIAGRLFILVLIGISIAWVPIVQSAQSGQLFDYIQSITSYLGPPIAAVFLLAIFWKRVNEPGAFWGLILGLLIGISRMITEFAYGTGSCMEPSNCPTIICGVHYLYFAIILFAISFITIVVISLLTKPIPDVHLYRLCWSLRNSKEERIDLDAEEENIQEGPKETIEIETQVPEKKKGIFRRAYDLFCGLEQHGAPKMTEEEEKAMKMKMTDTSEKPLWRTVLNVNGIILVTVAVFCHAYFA
The test is described as follows: Inhibition test of sodium-dependent sugar uptake in CHO-k1 cells stably expressing human SGLT1. The class given is cell-based. The settings on record: CHO-k1 cells expressing human SGLT1; [14C]methyl α-D-glucopyranoside uptake, 37° C., 30 minutes. The procedure, abridged:
as §1

Test [1] concerns Streptozotocin diabetic model rats. The experiment in a line: Oral glucose tolerance test in streptozotocin diabetic model rats. The class given is in vivo. The settings on record: Rattus norvegicus; STZ diabetic SD/IGS rats; 1 mg/kg oral, glucose 2 g/kg oral 5 minutes later; decrease rate of ΔAUC 0-1 h vs control group; read-out: STZ rats-OGTT(2 g/kg) % inhibition ΔAUC0-1 h(mgh/dL) @1 mg/kg. How it is done:
7-week-old SD/IGS rats (from CHARLES RIVER LABORATORIES JAPAN, INC., male) were fasted for about 16 hours. Then to these rats under etherization were administered 50 mg/kg of streptozotocin (STZ) via the tail vein to prepare diabetic model rats. Similarly, to rats under etherization were administered 1 mL/kg physiological saline containing 1.25 mmol/L of citric acid via tail veins to prepare normal control rats. One week (8 weeks old) after administration of STZ or 1.25 mmol/L citric acid physiological saline, the rats were subjected to oral glucose tolerance test.
After the rats were fasted for about 16 hours, the medicament (1 mg/kg) suspended in a 0.5% carboxymethyl cellulose (CMC) aqueous solution was orally administered to a medicament treated group, and only a 0.5% aqueous solution of CMC was orally administered to a control group. At 5 minutes after the administration, a glucose solution (2 g/kg) was orally administered to each rat, and blood was collected at 5 points in total: before the administration (0 time), after 0.25, 0.5, 1 and 2 hours after the oral administration.
The blood was collected from the orbital sinus venosus of each rat under etherization with a heparin-coated blood collection tube and centrifuged, and then blood plasma was separated. The concentration of glucose in the blood plasma was determined with Glucose CII Test Wako from Wako Pure Chemical Industries, Ltd. As for the intensity of inhibitory effect on elevation of blood glucose level, area under the blood glucose level curve (AUC) was calculated by the trapezoidal rule based on the blood glucose levels of the medicament treated group from 0 time to 1 hour time. And a basal value is subtracted from AUC to describe the intensity as area under the blood glucose level increment (ΔAUC) and describe the intensity as a decrease rate from the ΔAUC of the control group.

By IC50 is commonly meant the concentration that gives 50% inhibition.

For `Cc1cc(O)c([C@@H]2O[C@H](CO)[C@@H](O)[C@H](O)[C@H]2O)cc1Cc1ccc(CCNC(=O)NC(C)(C)C(=O)N2CCN(C)CC2)cc1` [Compound 12, (1S)-1,5-anhydro-1-[5-[4-[2-[[[1-[1-(4-methylpiperazin-1-yl)carbonyl]-1-(methyl)ethyl]aminocarbonyl]amino]ethyl]benzyl]-2-hydroxy-4-methylphenyl]-D-glucitol], the figures for the IC50 at human SGLT2 and at human SGLT1 were 48 nM and 113 nM, respectively. Besides, the inhibition in vivo at 1 mg/kg in test [1] worked out at 48.8%.
For `Cc1cc(O)c([C@@H]2O[C@H](CO)[C@@H](O)[C@H](O)[C@H]2O)cc1Cc1ccc(CCCC(=O)NC(C)(C)C(N)=O)cc1` [Compound 4, (1S)-1-[5-[4-[4-[(2-amino-1,1-dimethyl-2-oxoethyl)amino]-4-oxobutyl]benzyl]-2-hydroxy-4-methylphenyl]-1,5-anhydro-D-glucitol], in that order: 31 nM, 51 nM and 51%.
The matching figures for `Cc1cc(O)c([C@@H]2O[C@H](CO)[C@@H](O)[C@H](O)[C@H]2O)cc1Cc1ccc(CCCC(=O)NC(C)(C)CO)cc1` [Compound 1, (1S)-1,5-anhydro-1-[2-hydroxy-5-[4-[4-[(2-hydroxy-1,1-dimethylethyl)amino]-4-oxobutyl]benzyl]-4-methylphenyl]-D-glucitol]: 17 nM, 11 nM and 41.7%.

(Values after patent US7973012B2, “C-phenyl glycitol compound” (Taisho Pharmaceutical Co., Ltd, priority 2006, dated 2011).)
